The record followed here is article PMC11724075, “Small-molecule-induced ERBB4 activation to treat heart failure” (Nature Communications, 2025).

“And” between values parts separate entries of the source, which are not always exact repeats. Equal values may be shown once. A value given as a limit tells only on which side of the number the result lay.

Assay in data set [1]: not given
The source holds these as a separate data set.

The next data set has as its target T1, ERBB2/ERBB4 (Homo sapiens, UniProt Q15303).
T1 construct: host or cells: U2OS (osteosarcoma cells), PathHunter engineered line
In words: PathHunter U2OS ERBB2/ERBB4 dimerization assay. It is filed as cell-based. The following applies: for ERBB4/ERBB2 dimerization signal: relative to signal with 0.1 µM NRG1, single biological replicates. As to the method: PathHunter U2OS ERBB4/ERBB4 (osteosarcoma cells; Eurofins, 93-0961C3), U2OS ERBB2/ERBB4 (osteosarcoma cells; Eurofins, 493-0960C3), ERBB2/ERBB3 (osteosarcoma cells; Eurofins, 93-1042C3) and ERBB1/ERBB1 (osteosarcoma cells; Eurofins, 93-0989C3) dimerization cell lines were cultured according to the manufacturer’s instructions. Briefly, cells were cultured in Cell Culture Reagent 103 (Eurofins, 92-3103 G) supplemented with 250 µg/mL Hygromycin B (Eurofins, 92-0029) and 500 µg/mL G418 (Eurofins, 92-0030), and were maintained at 37 °C in humidified atmosphere of 5% CO2. HCFs (Innoprot, P10454) were cultured in fibroblast medium (Innoprot, P60108) supplemented with 10% (v/v) fetal bovine serum (FBS, Innoprot), 10% (v/v) fibroblast growth supplement (Innoprot), and 1% (v/v) penicillin/streptomycin solution (Innoprot). iAMs[33] (kindly provided by LUMC) were cultured in Advanced DMEM F-12 (Thermo Fisher Scientific, 12634028) supplemented with 2% (v/v) heat-inactivated FBS (Thermo Fisher Scientific, 10270106), 1% (v/v) penicillin/streptomycin (10,000 units/mL and 10 mg/mL respectively, Thermo Fisher Scientific, 15140122), 1× GlutaMAX (Thermo Fisher Scientific, 35050061), and 100 ng/mL doxycycline (Tocris, 4090) for proliferation. To induce differentiation, iAMs were transferred to medium without doxycycline.
U2OS ERBB4/ERBB4 dimerization cells were seeded at a density of 5 × 10^4 cells/well in 100 µL Cell Plating 0 Reagent, in white 96-well plates (PerkinElmer, 6005680) and incubated for 24 h at 37 °C, 5% CO2. […] Next, 110 µL PathHunter Flash Detection Reagent was added to each well and incubated at RT for 1 h after which the luminescence signal was measured using the Luminoskan Ascent (Thermo Fisher Scientific). […] The same experimental set-up was used for the U2OS ERBB2/ERBB4, U2OS ERBB2/ERBB3 and U2OS ERBB1/ERBB1 dimerization cell lines.

T1 sequence (Q15303 26-1308): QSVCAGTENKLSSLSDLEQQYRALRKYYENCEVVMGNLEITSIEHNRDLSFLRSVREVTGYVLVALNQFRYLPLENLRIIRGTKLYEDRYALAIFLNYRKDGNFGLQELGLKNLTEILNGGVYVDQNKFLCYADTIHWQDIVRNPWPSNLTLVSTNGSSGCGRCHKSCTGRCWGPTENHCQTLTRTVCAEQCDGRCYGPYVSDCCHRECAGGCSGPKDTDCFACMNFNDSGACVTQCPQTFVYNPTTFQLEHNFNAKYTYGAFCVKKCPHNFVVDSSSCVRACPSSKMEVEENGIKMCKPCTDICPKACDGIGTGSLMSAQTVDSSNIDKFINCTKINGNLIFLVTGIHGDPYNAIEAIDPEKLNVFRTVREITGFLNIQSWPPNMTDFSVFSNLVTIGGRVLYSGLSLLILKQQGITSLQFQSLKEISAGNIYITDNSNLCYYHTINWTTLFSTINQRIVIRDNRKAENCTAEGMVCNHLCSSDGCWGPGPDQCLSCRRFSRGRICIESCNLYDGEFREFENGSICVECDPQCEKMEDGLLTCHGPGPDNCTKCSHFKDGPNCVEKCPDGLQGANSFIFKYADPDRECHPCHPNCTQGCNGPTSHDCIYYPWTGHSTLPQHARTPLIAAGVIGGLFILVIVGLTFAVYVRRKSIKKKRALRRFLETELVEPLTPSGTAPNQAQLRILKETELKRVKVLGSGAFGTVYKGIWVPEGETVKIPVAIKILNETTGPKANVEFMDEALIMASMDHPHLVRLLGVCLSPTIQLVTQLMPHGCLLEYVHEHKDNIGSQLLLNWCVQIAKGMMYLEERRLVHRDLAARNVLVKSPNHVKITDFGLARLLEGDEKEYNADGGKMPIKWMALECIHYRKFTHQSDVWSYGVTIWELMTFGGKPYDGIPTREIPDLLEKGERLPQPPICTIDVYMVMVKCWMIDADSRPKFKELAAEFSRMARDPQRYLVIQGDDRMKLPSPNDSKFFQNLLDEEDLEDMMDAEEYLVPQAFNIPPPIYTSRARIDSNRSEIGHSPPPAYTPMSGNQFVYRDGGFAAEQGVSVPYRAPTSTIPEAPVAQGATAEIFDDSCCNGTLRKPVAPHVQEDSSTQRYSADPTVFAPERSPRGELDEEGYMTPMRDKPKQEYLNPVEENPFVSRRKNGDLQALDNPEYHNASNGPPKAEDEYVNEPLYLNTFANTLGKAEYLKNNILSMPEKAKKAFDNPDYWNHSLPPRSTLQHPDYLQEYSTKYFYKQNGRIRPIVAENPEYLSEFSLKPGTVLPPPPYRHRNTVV
T1 sequence (P04626 23-1255 partner): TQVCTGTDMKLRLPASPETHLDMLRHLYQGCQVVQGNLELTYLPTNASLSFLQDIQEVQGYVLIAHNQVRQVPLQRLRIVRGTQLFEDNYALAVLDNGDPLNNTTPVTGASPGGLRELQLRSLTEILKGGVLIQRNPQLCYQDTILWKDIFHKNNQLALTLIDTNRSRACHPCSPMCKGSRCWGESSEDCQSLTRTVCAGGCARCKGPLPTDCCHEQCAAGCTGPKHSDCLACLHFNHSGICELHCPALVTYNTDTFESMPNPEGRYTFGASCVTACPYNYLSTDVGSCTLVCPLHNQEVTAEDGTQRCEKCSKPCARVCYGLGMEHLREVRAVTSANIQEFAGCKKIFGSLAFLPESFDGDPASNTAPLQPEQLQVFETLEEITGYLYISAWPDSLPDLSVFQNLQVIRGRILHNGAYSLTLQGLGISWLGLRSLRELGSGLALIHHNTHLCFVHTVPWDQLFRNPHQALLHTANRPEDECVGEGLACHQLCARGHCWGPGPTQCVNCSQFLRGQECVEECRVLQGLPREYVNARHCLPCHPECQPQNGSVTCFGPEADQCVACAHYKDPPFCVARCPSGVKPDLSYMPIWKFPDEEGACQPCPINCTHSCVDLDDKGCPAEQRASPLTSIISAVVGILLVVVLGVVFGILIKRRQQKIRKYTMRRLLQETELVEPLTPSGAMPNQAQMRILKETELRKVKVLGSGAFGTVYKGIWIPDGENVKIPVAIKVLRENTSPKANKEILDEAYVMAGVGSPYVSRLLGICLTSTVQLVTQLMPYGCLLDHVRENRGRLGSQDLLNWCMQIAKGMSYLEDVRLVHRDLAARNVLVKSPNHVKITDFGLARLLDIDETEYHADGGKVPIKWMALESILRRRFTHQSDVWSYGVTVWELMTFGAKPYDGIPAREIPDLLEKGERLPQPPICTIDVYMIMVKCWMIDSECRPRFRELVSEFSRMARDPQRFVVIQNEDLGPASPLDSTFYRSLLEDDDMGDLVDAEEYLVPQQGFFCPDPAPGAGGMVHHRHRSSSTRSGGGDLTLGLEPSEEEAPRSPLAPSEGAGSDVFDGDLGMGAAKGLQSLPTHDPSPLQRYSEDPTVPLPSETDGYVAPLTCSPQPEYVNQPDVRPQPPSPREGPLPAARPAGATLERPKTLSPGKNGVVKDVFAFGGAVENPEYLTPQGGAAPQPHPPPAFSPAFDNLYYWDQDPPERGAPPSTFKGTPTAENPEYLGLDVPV

Turning to `O=C(NC1CC1)C(Sc1nc2ccccc2c(=O)n1C1CCCC1)c1ccccc1` (stereo not drawn) [EF-1], the “half-life with mouse microsomes” value amounted to 0.25 h. The “half-life with human liver microsomes” value in data set [1] was greater than 6 h. Also, the EC50 (in general, the concentration that produces a half-maximal response) on ERBB2/ERBB4 was greater than 32 µM. The same molecule had an ERBB4/ERBB2 dimerization signal on ERBB2/ERBB4 (3.125e-8 M) of 0. Further, the ERBB4/ERBB2 dimerization signal at ERBB2/ERBB4 (6.25e-8 M) was 10.52 and 1.76 and 3.95 and -0.62 and 8.84 and 32.1 and -4.84 and 13.1. The ERBB4/ERBB2 dimerization signal on ERBB2/ERBB4 (1.25e-7 M) is 11.16 and 1.7 and 0.22 and 2.37 and 10.84 and 42.31 and 0.8 and 15.8. The ERBB4/ERBB2 dimerization signal at ERBB2/ERBB4 (2.5e-7 M) is 14.28 and 2.37 and -0.2 and 2.18 and 11.16 and 44.62 and 2.21 and 32.89. Besides, the ERBB4/ERBB2 dimerization signal at ERBB2/ERBB4 (5e-7 M) was 15.8 and 3.34 and -0.84 and 2.5 and 14.03 and 46.76 and 10.28 and 38.19. In addition, the ERBB4/ERBB2 dimerization signal at ERBB2/ERBB4 (1e-6 M) is 17.47 and 6.72 and 2.79 and 5.79 and 18.63 and 53.25 and 13.21 and 49.02. In addition, the ERBB4/ERBB2 dimerization signal at ERBB2/ERBB4 (2e-6 M) is 23.23 and 10.36 and 6.17 and 10.55 and 22.36 and 58.49 and 25.9 and 62.1. In addition, at ERBB2/ERBB4 (4e-6 M), the ERBB4/ERBB2 dimerization signal is 39.65 and 19.88 and 18.63 and 20.82 and 41.51 and 62.22 and 30.3 and 62.16. The ERBB4/ERBB2 dimerization signal on ERBB2/ERBB4 (8e-6 M) is 43.57 and 23.14 and 20.33 and 27.19 and 40.97 and 69.15 and 32.21 and 63.74. Besides, at ERBB2/ERBB4 (1.6e-5 M), the ERBB4/ERBB2 dimerization signal is 49.69 and 37.91 and 30.09 and 36.81 and 54.68 and 124.7 and 60.3 and 94.64. On ERBB2/ERBB4 (3.2e-5 M), the ERBB4/ERBB2 dimerization signal was 99.26 and 72.09 and 64.59 and 71.61 and 99.65 and 139.93 and 119.85 and 114.61. In addition, the “efficacy in ERBB2/ERBB4 dimerization assay at the highest concentration (in words)” value at ERBB2/ERBB4 (highest concentration) is “like the natural ligand NRG1”.
